The text below walks through data of ChEMBL document CHEMBL3352104, “Biological evaluation and structural insights for design of subtype-selective peroxisome proliferator activated receptor-α (PPAR-α) agonists” (Bioorg Med Chem Lett, 2015).

Assay [1] concerns the target T1, Peroxisome proliferator-activated receptor alpha (Homo sapiens, UniProt Q07869).
T1 sequence (Q07869 whole entry): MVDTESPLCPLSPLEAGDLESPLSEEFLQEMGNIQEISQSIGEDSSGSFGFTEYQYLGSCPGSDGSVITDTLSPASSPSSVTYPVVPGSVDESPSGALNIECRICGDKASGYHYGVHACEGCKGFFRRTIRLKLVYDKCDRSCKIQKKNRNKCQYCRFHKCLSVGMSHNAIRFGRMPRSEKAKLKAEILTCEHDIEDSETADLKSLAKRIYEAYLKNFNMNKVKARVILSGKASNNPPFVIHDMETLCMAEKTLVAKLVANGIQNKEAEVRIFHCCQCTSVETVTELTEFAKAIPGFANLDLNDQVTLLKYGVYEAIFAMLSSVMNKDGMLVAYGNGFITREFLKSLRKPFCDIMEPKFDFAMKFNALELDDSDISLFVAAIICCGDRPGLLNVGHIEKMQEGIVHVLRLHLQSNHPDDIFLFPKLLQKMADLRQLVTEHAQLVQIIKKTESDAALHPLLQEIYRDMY
Description: Agonist activity at GAL4-tagged PPARalpha ligand-binding domain (unknown origin) expressed in HEK293T cells incubated for 16 to 19 hrs by beta-lactamase reporter gene assay. Format: cell-based, HEK-293T.

In assay [2] the target is T2, Peroxisome proliferator-activated receptor delta (Homo sapiens, UniProt Q03181).
T2 sequence (Q03181 whole entry): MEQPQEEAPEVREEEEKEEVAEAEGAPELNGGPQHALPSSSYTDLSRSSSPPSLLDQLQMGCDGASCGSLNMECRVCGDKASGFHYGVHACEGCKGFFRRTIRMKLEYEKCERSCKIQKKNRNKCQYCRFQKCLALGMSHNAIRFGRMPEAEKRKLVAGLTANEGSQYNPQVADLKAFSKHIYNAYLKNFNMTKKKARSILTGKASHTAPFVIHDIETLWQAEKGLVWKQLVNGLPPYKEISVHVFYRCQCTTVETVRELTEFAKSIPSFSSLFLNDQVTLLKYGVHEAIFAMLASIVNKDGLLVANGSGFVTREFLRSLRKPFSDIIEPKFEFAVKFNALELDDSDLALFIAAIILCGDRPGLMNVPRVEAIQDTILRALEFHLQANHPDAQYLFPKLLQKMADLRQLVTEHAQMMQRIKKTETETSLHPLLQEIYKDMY
Description: Agonist activity at GAL4-tagged PPARdelta (unknown origin).

Assay [3] addresses T3, Peroxisome proliferator-activated receptor gamma (Homo sapiens, UniProt P37231).
T3 sequence (P37231 whole entry): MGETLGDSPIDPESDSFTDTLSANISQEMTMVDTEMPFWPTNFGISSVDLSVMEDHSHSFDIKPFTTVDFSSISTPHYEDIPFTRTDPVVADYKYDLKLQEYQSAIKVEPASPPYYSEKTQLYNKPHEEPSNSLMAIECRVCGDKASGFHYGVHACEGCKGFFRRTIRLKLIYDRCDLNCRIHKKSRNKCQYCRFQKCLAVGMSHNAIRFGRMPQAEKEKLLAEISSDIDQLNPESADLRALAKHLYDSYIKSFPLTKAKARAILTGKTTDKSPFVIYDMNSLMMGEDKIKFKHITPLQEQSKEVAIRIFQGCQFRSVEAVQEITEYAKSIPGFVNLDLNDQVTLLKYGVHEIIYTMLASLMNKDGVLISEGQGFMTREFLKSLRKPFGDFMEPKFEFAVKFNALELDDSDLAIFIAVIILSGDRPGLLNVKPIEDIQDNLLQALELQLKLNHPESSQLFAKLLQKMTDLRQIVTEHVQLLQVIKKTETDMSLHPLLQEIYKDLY
Description: Agonist activity at GAL4-tagged PPARgamma (unknown origin).

Take `CCCCCOC(=O)c1ccc(NC(=O)c2cccc(NC(=O)c3ccccc3C(=O)O)c2)cc1`: in assay [1], the EC50 is 0.0011 µM.

Consider `Cc1ccc(-c2nc(C)c(C(=O)N[C@H]3CCCN(c4cccc(C(=O)O)c4)C3)s2)cc1`, for which the EC50 in assay [2] is 11 µM; in assay [3], 3.1 µM.

Take `Cc1nc(-c2cccc(C(F)(F)F)c2)sc1CNCc1ccc(OC(C)(C)C(=O)O)cc1`: the concentration giving a half-maximal response (EC50) worked out at 25 µM in assay [2], 0.004 µM in assay [1] and 25 µM in assay [3].

As to `Cc1nc(-c2ccc(Cl)cc2)sc1C(=O)N[C@H]1CCCN(c2cccc(C(=O)O)c2)C1`, the figures for the EC50 in assay [2] and in assay [3] were 13 µM and 6.6 µM, respectively.

For the molecule `CC[C@@H](Oc1cccc(CN(CCCOc2ccc(OC)cc2)c2nc3ccccc3o2)c1)C(=O)O` [PEMAFIBRATE], the figures for the EC50 in assay [2] and in assay [3] were 10 µM and 1.7 µM, respectively.

Molecule `Cc1c(C(=O)O)cccc1-c1ccc(/C=C2/SC(=O)N(CC(=O)Nc3ccc(F)cc3)C2=O)o1` registered an EC50 in assay [1] of 0.00016 µM.

`CCOC(=O)C1=C(Nc2ccc(OCC)cc2)S/C(=C/c2ccc(OCC(=O)O)c(OC)c2)C1=O` showed an EC50 in assay [1] of 0.0121 µM.
